The record followed here is patent US12521440B2, “Degradation of bruton's tyrosine kinase (BTK) by conjugation of BTK inhibitors with E3 ligase ligand and methods of use” (BeOne Medicines I GmbH, priority 2021, dated 2026).

For test [1], the system named is HEK-293 cells. Description: HEK-293 cytotoxicity detection (CellTiter-Glo). Type of test: cell-based. As to conditions: Homo sapiens, 72 h incubation, read-out: HEK293. The method in brief:
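HEK-293 cells exposed 72 h to 8 compound concentrations (4-fold dilution series, 0.2% DMSO). Viability read as CellTiter-Glo luminescence; IC50 from four-parameter logistic fit of percent inhibition.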

Test [2] deals with T1, BTK (Homo sapiens, UniProt Q06187).
T1 construct: endogenous in cells; host or cells: TMD-8 cells
Description: BTK degradation in TMD-8 cells (HTRF assay). The test is classed as cell-based. As to conditions: 6 h treatment, HTRF BTK degradation IC50 (DC50). The method in brief: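 TMD-8 cells exposed to 8 concentrations (6-fold serial dilution from 1 mM 500× DMSO stocks; 0.2% DMSO final) for 6 h. Lysates incubated overnight at room temperature with HTRF antibodies, read at 665/620 nm. DC50 from four-parameter logistic fit of percent inhibition.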

T1 sequence (Q06187 whole entry): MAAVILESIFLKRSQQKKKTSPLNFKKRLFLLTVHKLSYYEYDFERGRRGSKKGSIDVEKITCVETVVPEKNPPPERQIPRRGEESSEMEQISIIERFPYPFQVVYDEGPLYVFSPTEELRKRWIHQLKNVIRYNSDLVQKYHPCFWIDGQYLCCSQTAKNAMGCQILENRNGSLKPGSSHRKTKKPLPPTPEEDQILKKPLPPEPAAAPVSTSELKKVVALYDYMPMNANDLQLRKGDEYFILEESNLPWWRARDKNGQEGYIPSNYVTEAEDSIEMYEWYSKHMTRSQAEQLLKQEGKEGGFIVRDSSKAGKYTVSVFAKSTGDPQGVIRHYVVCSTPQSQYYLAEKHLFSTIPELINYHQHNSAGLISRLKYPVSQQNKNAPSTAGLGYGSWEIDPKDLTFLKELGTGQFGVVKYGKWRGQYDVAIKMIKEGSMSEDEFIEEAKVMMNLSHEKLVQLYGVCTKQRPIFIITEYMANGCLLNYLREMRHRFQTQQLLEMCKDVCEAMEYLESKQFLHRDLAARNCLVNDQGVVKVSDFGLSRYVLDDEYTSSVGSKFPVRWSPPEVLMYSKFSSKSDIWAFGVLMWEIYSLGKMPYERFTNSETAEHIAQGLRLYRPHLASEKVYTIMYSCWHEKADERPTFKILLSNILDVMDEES

Turning to `Cc1cc(-c2cc(Nc3ccc(N4CCN([C@H]5C[C@H](c6ccc(N[C@@H]7CCC(=O)NC7=O)cc6)C5)CC4)cn3)ncn2)ccc1[C@@H](C)NC(=O)c1nc(C(C)(C)C)no1` [Example 55, 3-(tert-butyl)-N—((R)-1-(4-(6-((5-(4-((1R,3r)-3-(4-(((R)-2,6-dioxopiperidin-3-yl)amino)phenyl)cyclobutyl)piperazin-1-yl)pyridin-2-yl)amino)pyrimidin-4-yl)-2-methylphenyl)ethyl)-1,2,4-oxadiazole-5-carboxamide], the IC50 in test [1] is above 10000 nM. In test [2], this compound yielded a DC50 of 2.08 nM.
On to `Cc1cc(-c2cc(Nc3ccc(N4CCN(C(=O)Cc5cccc(N6CCC(=O)NC6=O)c5)CC4)cn3)ncn2)ccc1[C@@H](C)NC(=O)c1nc(C(C)(C)C)no1` [Example 56, (R)-3-(tert-butyl)-N-(1-(4-(6-((5-(4-(2-(3-(2,4-dioxotetrahydropyrimidin-1(2H)-yl)phenyl)acetyl)piperazin-1-yl)pyridin-2-yl)amino)pyrimidin-4-yl)-2-methylphenyl)ethyl)-1,2,4-oxadiazole-5-carboxamide], for which the IC50 in test [1] was above 10000 nM. Besides, it took 9.9 nM to reach half-maximal degradation in test [2] (DC50).
In the case of `Cc1cc(-c2cc(Nc3ccc(N4CCN(CC5CCN(c6cccc(CN7CCC(=O)NC7=O)c6)CC5)CC4)cn3)ncn2)ccc1[C@@H](C)NC(=O)c1nc(C(C)(C)C)no1` [Example 57, (R)-3-(tert-butyl)-N-(1-(4-(6-((5-(4-((1-(3-((2,4-dioxotetrahydropyrimidin-1(2H)-yl)methyl)phenyl)piperidin-4-yl)methyl)piperazin-1-yl)pyridin-2-yl)amino)pyrimidin-4-yl)-2-methylphenyl)ethyl)-1,2,4-oxadiazole-5-carboxamide], the IC50 in test [1] was above 10000 nM. The compound also yielded a DC50 in test [2] of 29.5 nM.
The corresponding values for `Cc1cc(-c2cc(Nc3ccc(N4CCN(CCn5cccc(CN6CCC(=O)NC6=O)c5=O)CC4)cn3)ncn2)ccc1[C@@H](C)NC(=O)c1nc(C(C)(C)C)no1` [Example 58, (R)-3-(tert-butyl)-N-(1-(4-(6-((5-(4-(2-(3-((2,4-dioxotetrahydropyrimidin-1(2H)-yl)methyl)-2-oxopyridin-1(2H)-yl)ethyl)piperazin-1-yl)pyridin-2-yl)amino)pyrimidin-4-yl)-2-methylphenyl)ethyl)-1,2,4-oxadiazole-5-carboxamide] are above 10000 nM and 0.276 nM.
The corresponding values for `Cc1cc(-c2cc(Nc3ccc(N4CCN(CC5CCN(c6ccc(CN7CCC(=O)NC7=O)cc6)CC5)CC4)cn3)ncn2)ccc1[C@@H](C)NC(=O)c1nc(C(C)(C)C)no1` [Example 59, (R)-3-(tert-butyl)-N-(1-(4-(6-((5-(4-((1-(4-((2,4-dioxotetrahydropyrimidin-1(2H)-yl)methyl)phenyl)piperidin-4-yl)methyl)piperazin-1-yl)pyridin-2-yl)amino)pyrimidin-4-yl)-2-methylphenyl)ethyl)-1,2,4-oxadiazole-5-carboxamide] are above 10000 nM and 10.2 nM.
The corresponding values for `CCc1nc(Nc2cc(-c3ccc([C@@H](C)NC(=O)c4nc(C(C)(C)C)no4)c(C)c3)ncn2)ccc1N1CCN(CC2CCN(c3ccc(N4CCC(=O)NC4=O)cc3)CC2)CC1` [Example 60, (R)-3-(tert-butyl)-N-(1-(4-(6-((5-(4-((1-(4-(2,4-dioxotetrahydropyrimidin-1(2H)-yl)phenyl)piperidin-4-yl)methyl)piperazin-1-yl)-6-ethylpyridin-2-yl)amino)pyrimidin-4-yl)-2-methylphenyl)ethyl)-1,2,4-oxadiazole-5-carboxamide] are above 10000 nM and 3.93 nM.
As to `Cc1cc(-c2cc(Nc3ccc(N4CCN(CC5CCN(c6ccc(N7CCC(=O)NC7=O)cc6)CC5)CC4)c(C)n3)ncn2)ccc1[C@@H](C)NC(=O)c1nc(C(C)(C)C)no1` [Example 61, (R)-3-(tert-butyl)-N-(1-(4-(6-((5-(4-((1-(4-(2,4-dioxotetrahydropyrimidin-1(2H)-yl)phenyl)piperidin-4-yl)methyl)piperazin-1-yl)-6-methylpyridin-2-yl)amino)pyrimidin-4-yl)-2-methylphenyl)ethyl)-1,2,4-oxadiazole-5-carboxamide], the IC50 in test [1] was above 10000 nM. This compound also had a DC50 in test [2] of 1.65 nM.
On to `Cc1cc(-c2cc(Nc3cc(C)c(N4CCN(CC5CCN(c6ccc(N7CCC(=O)NC7=O)cc6)CC5)CC4)cn3)ncn2)ccc1[C@@H](C)NC(=O)c1nc(C(C)(C)C)no1` [Example 62], for which, in test [1], the IC50 was above 10000 nM. In test [2], this compound yielded a DC50 of 12.3 nM.
Take `COc1nc(Nc2cc(-c3ccc([C@@H](C)NC(=O)c4nc(C(C)(C)C)no4)c(C)c3)ncn2)ccc1N1CCN(CC2CCN(c3ccc(N4CCC(=O)NC4=O)cc3)CC2)CC1` [Example 63]: the IC50 in test [1] stood at 614 nM. In test [2], this compound showed a DC50 of 0.979 nM.
Take `COc1cc(Nc2cc(-c3ccc([C@@H](C)NC(=O)c4nc(C(C)(C)C)no4)c(C)c3)ncn2)ncc1N1CCN(CC2CCN(c3ccc(N4CCC(=O)NC4=O)cc3)CC2)CC1` [Example 64, (R)-3-(tert-butyl)-N-(1-(4-(6-((5-(4-((1-(4-(2,4-dioxotetrahydropyrimidin-1(2H)-yl)phenyl)piperidin-4-yl)methyl)piperazin-1-yl)-4-methoxypyridin-2-yl)amino)pyrimidin-4-yl)-2-methylphenyl)ethyl)-1,2,4-oxadiazole-5-carboxamide]: in test [1], the IC50 is above 10000 nM. Also, half-maximal degradation in test [2] (DC50) was put at 26 nM.
With `Cc1cc(-c2cc(Nc3cc(F)c(N4CCN(CC5CCN(c6ccc(N7CCC(=O)NC7=O)cc6)CC5)CC4)cn3)ncn2)ccc1[C@@H](C)NC(=O)c1nc(C(C)(C)C)no1` [Example 65], the IC50 in test [1] was above 10000 nM. This compound also displayed a DC50 in test [2] of 3.7 nM.
As for `Cc1cc(-c2ccnc(Nc3ccc(N4CCN(CC5CCN(c6ccc(N7CCC(=O)NC7=O)cc6)CC5)CC4)c(F)n3)n2)ccc1[C@@H](C)NC(=O)c1nc(C(C)(C)C)no1` [Example 66, (R)-3-(tert-butyl)-N-(1-(4-(2-((5-(4-((1-(4-(2,4-dioxotetrahydropyrimidin-1(2H)-yl)phenyl)piperidin-4-yl)methyl)piperazin-1-yl)-6-fluoropyridin-2-yl)amino)pyrimidin-4-yl)-2-methylphenyl)ethyl)-1,2,4-oxadiazole-5-carboxamide], the IC50 in test [1] was above 10000 nM. Besides, the 50% degradation concentration (DC50) in test [2] was 2.93 nM.
`Cc1cc(-c2ccnc(Nc3ccc(N4CCN(CC5CCN(c6ccc(N7CCC(=O)NC7=O)cc6)CC5)CC4)cn3)n2)ccc1[C@@H](C)NC(=O)c1nc(C(C)(C)C)no1` [Example 67, (R)-3-(tert-butyl)-N-(1-(4-(2-((5-(4-((1-(4-(2,4-dioxotetrahydropyrimidin-1(2H)-yl)phenyl)piperidin-4-yl)methyl)piperazin-1-yl)pyridin-2-yl)amino)pyrimidin-4-yl)-2-methylphenyl)ethyl)-1,2,4-oxadiazole-5-carboxamide]: the IC50 in test [1] was above 10000 nM. For the same compound, the DC50 in test [2] was found to be 10.6 nM.
Consider `Cc1cc(-c2ccnc(Nc3ccc(N4CCN(C5CC6(CCN(c7ccc(N8CCC(=O)NC8=O)cc7)CC6)C5)CC4)cn3)n2)ccc1[C@@H](C)NC(=O)c1nc(C(C)(C)C)no1` [Example 68, (R)-3-(tert-butyl)-N-(1-(4-(2-((5-(4-(7-(4-(2,4-dioxotetrahydropyrimidin-1(2H)-yl)phenyl)-7-azaspiro[3.5]nonan-2-yl)piperazin-1-yl)pyridin-2-yl)amino)pyrimidin-4-yl)-2-methylphenyl)ethyl)-1,2,4-oxadiazole-5-carboxamide], for which the IC50 in test [1] was above 10000 nM. Also, the 50% degradation concentration (DC50) in test [2] is 17.4 nM.
For the compound `Cc1cc(-c2ccnc(Nc3ccc(N4CCN(CC5CCN(c6ccc(N7CCC(=O)NC7=O)cc6)CC5)CC4)cc3)n2)ccc1[C@@H](C)NC(=O)c1nc(C(C)(C)C)no1` [Example 69, (R)-3-(tert-butyl)-N-(1-(4-(2-((4-(4-((1-(4-(2,4-dioxotetrahydropyrimidin-1(2H)-yl)phenyl)piperidin-4-yl)methyl)piperazin-1-yl)phenyl)amino)pyrimidin-4-yl)-2-methylphenyl)ethyl)-1,2,4-oxadiazole-5-carboxamide], the IC50 in test [1] was above 10000 nM. Also, in test [2], it took 2.42 nM to reach half-maximal degradation (DC50).
Consider `Cc1cc(-c2ncnc(Nc3ccc(N4CCN(CC5CCN(c6ccc(N7CCC(=O)NC7=O)cc6)CC5)CC4)cn3)c2F)ccc1[C@@H](C)NC(=O)c1nc(C(C)(C)C)no1` [Example 70, (R)-3-(tert-butyl)-N-(1-(4-(6-((5-(4-((1-(4-(2,4-dioxotetrahydropyrimidin-1(2H)-yl)phenyl)piperidin-4-yl)methyl)piperazin-1-yl)pyridin-2-yl)amino)-5-fluoropyrimidin-4-yl)-2-methylphenyl)ethyl)-1,2,4-oxadiazole-5-carboxamide], for which the IC50 in test [1] was above 10000 nM. In test [2], this compound displayed a DC50 above 2000 nM.
`Cc1cc(-c2cc(Nc3ncc(N4CCN(CC5CCN(c6ccc(N7CCC(=O)NC7=O)cc6)CC5)CC4)s3)ncn2)c(F)cc1[C@@H](C)NC(=O)c1nc(C(C)(C)C)no1` [Example 71, (R)-3-(tert-butyl)-N-(1-(4-(6-((5-(4-((1-(4-(2,4-dioxotetrahydropyrimidin-1(2H)-yl)phenyl)piperidin-4-yl)methyl)piperazin-1-yl)thiazol-2-yl)amino)pyrimidin-4-yl)-5-fluoro-2-methylphenyl)ethyl)-1,2,4-oxadiazole-5-carboxamide]: in test [1], the IC50 was above 10000 nM. Besides, the DC50 in test [2] was 17.9 nM.
The corresponding values for `Cc1cc(-c2cc(Nc3nnc(N4CCN(CC5CCN(c6ccc(N7CCC(=O)NC7=O)cc6)CC5)CC4)s3)ncn2)ccc1[C@@H](C)NC(=O)c1nc(C(C)(C)C)no1` [Example 72, (R)-3-(tert-butyl)-N-(1-(4-(6-((5-(4-((1-(4-(2,4-dioxotetrahydropyrimidin-1(2H)-yl)phenyl)piperidin-4-yl)methyl)piperazin-1-yl)-1,3,4-thiadiazol-2-yl)amino)pyrimidin-4-yl)-2-methylphenyl)ethyl)-1,2,4-oxadiazole-5-carboxamide] are 1910 nM and 11.2 nM.

The DC50 is the concentration at which degradation of the target reaches its halfway point.
